The values that follow come from patent US20030220406A1, “Solutizing agents” (priority 2000, published 2003).

This data set can be described thus: Solubilizing power: test substances added to 10 g of solubilizer until the solubility limit was reached. Type of data set: physicochemical. The source says:
Example 1 corresponds to the invention, Examples C1 and C2 are intended for comparison.

[1] abbreviates: in comparison solubilizer C1 (PEG-40 Hydrogenated Castor Oil 100 % by weight).
[2] abbreviates: in comparison solubilizer C2 (Cocoeth-8 100 % by weight).
Setting [3] is: in solubilizer of Example 1 (Cocoeth-8 40, PPG1-PEG9 Lauryl Glycol Ether 30, PEG-40 Hydrogenated Castor Oil 20, Water 10 % by weight).

With `Cc1ccc(C=C2C(=O)C3(C)CCC2C3(C)C)cc1` (stereo not drawn) [4-Methylbenzylidene Camphor], the Solubility runs as follows: under setting [1], 0.50 g/10 g solubilizer; under setting [2], 0.38 g/10 g solubilizer; under setting [3], 1.10 g/10 g solubilizer.
In the same order, the values of `COc1ccc(C(=O)c2ccccc2)c(O)c1` [Benzophenone-3] are 0.40 g/10 g solubilizer, 0.20 g/10 g solubilizer and 0.44 g/10 g solubilizer.
With `COc1ccc(/C=C/C(=O)OCCC(C)C)cc1` [Isoamyl Methoxycinnamate], the Solubility was determined as 0.60 g/10 g solubilizer under setting [1], 0.70 g/10 g solubilizer under setting [2] and 1.10 g/10 g solubilizer under setting [3].
Consider `CC1CCC(C(C)C)C(O)C1` (stereo not drawn) [Menthol], for which the Solubility stood at 1.10 g/10 g solubilizer under setting [1], 1.05 g/10 g solubilizer under setting [2] and 4.80 g/10 g solubilizer under setting [3].
`CCCCC(CC)COC(=O)C=Cc1ccc(OC)cc1` (stereo not drawn) [Octyl Methoxycinnamate]: the Solubility by setting is: under setting [1], 0.45 g/10 g solubilizer; under setting [2], 0.60 g/10 g solubilizer; under setting [3], 1.60 g/10 g solubilizer.
In the same order, the values of Tocopherol are 0.40 g/10 g solubilizer, 0.50 g/10 g solubilizer and 0.90 g/10 g solubilizer.
